# Experiments:
# Assay type in all cases: in vivo
# [1] = test system: corn plants, commercial 111 day, central corn belt variety; assay: Corn stomatal conductance; conditions: for Average Stomatal Conductance (% of Control), 6 DAS: 6 days after spraying; for Average Stomatal Conductance (% of Control), 16 DAS: 16 days after spraying
# Description: (§1) In this greenhouse experiment, foliar spray treatments containing 3′-methyl-(S)-abscisic acid, 3′-propargyl-(S)-abscisic acid or (S)-abscisic acid were applied to corn plants to evaluate their effect on gas exchange, as measured through stomatal conductance. Corn plants of a commercial, 111 day, central corn belt variety were grown in the greenhouse under optimal conditions for five weeks and were size-matched into ten groups of five plants. Using an aerosol sprayer, each group was sprayed to drip (25 milliliters per plant) with solutions containing a non-ionic surfactant (0.125%, v/v) and water (control), 2.5 mg, 7.5 mg or 25 mg/plant 3′-methyl-(S)-abscisic acid, or 2.5 mg, 7.5 mg or 25 mg/plant 3′-propargyl-(S)-abscisic acid, or 7.5 mg, 25 mg or 75 mg/plant (5)-ABA, respectively. After spraying, plants were returned to the greenhouse for the duration of the experiment. Stomatal conductance was measured using an AP4 porometer (Delta T Devices, Cambridge, UK) and the conductance for each plant was recorded at approximately the same time of day (˜10 AM) prior to treatment application as well as 1, 2, 5, 6, 9 and 16 days post-spraying.
# [2] = test system: corn plants, commercial 111 day, central corn belt variety; assay: Corn plant leaf rolling assay and shoot fresh weight under drought; conditions: for Shoot Fresh Weight, 15 DAS: 12 days drought then 3 days watering; for Average # of Rolled Leaves/Plant, 5 DAS / Average # of Rolled Leaves/Plant, 6 DAS / Average # of Rolled Leaves/Plant, 8 DAS: water withheld; for Average # of Rolled Leaves/Plant, 5 DAS: 5 days after spraying; for Average # of Rolled Leaves/Plant, 6 DAS: 6 days after spraying; for Average # of Rolled Leaves/Plant, 8 DAS: 8 days after spraying
# Description: as §1, with “post-spraying. This study was conducted as described above with the following the exceptions. After spraying, plants were put back in the greenhouse and water was withheld for twelve days, simulating drought stress. The plants were then watered to saturation for three consecutive days before the plant shoots were cut at the soil surface and subsequently weighed in grams (fresh weight). Leaf-rolling data and fresh weight data were recorded for each plant following treatment application at the times specified below in Table 6.” for “post-spraying.”
# [3] = test system: soybean plants; assay: Soybean drought tolerance (stomatal conductance)
# Description: In this study, soybean plants were grown for 10 days under ambient lab temperature conditions and illumination of 150 umol m^2 s^−1 and a 16:8 photoperiod. At spraying, the primary leaves were fully expanded and the first trifoliate leaves were partially expanded. The plants were sprayed to dampness with solutions of water, S-ABA, 3′-methyl-(S)-abscisic acid, or 3′-propargyl-(S)-abscisic acid containing 0.025% (v/v) non-ionic surfactant. At times following spraying, the conductance of the primary leaves was measured using an AP4 porometer (Delta T Devices, Cambridge, UK) to evaluate the effect on stomatal conductance. A decrease in stomatal aperture, reflected in the conductance measures, is an immediate and direct effect of applied S-ABA. To simplify the data, the controls were always set to 100%. In Table 9, the effect of spray applications on the stomatal conductance was measured.
# [4] = test system: corn plants, 111 day, central corn belt variety; assay: Corn plant chilling (growth rate); conditions: for Growth Rate, Greenhouse 7-9 d post spray / Growth Rate, Greenhouse 0-2 d post spray / Growth Rate, Growth Chamber 10° C. 2-7 d post spray: foliar spray 1000 mg/l (113.7 g/acre); for Growth Rate, Greenhouse 7-9 d post spray: after chilling; for Growth Rate, Greenhouse 0-2 d post spray: before chilling; for Growth Rate, Growth Chamber 10° C. 2-7 d post spray: during chilling at 10° C.
# Description: Corn seeds of a 111 day, central corn belt variety were planted in 2-quart pots filled with medium. After the corn grew for 10 days in the greenhouse at 24±3° C. (V2 to V3 growth stage), the plants received a foliar spray application of aqueous solutions of the test compounds containing 0.25% non-ionic surfactant with a volume equivalent to 30 gallons/acre. After spraying, plants were moved back to the greenhouse for 2 days, then moved to a growth chamber kept at 10° C. with a 16:8 light:dark cycle (cold treatment). After 5 days in the cold, plants were returned to the greenhouse for 2 days before being harvested destructively. Results of the studies comparing the growth rate of plants treated with S-ABA with 3′-methyl-(S)-ABA during the experiment are shown in Table 3. In additional studies, the effect of S-ABA and 3′-propargyl-(S)-ABA on corn growth rate in chilling studies was compared.
# [5] = foliar spray 300 ppm or 7.5 mg/plant
# [6] = foliar spray 1000 ppm or 25 mg/plant
# [7] = foliar spray 3000 ppm or 75 mg/plant
# [8] = foliar spray 300 mg/l, 0.3 mg/plant
# [9] = foliar spray 1000 mg/l, 1.0 mg/plant
structure (smiles),measurement,setting,value
"CC1=CC(=O)CC(C)(C)[C@@]1(O)/C=C/C(C)=C/C(=O)O [S-ABA, (S)-abscisic acid]","Average Stomatal Conductance (% of Control), 6 DAS",[1]; [5],88.5 % of Control
same,"Average Stomatal Conductance (% of Control), 16 DAS",[1]; [5],89.3 % of Control
same,"Average Stomatal Conductance (% of Control), 6 DAS",[1]; [6],83.7 % of Control
same,"Average Stomatal Conductance (% of Control), 16 DAS",[1]; [6],88.0 % of Control
same,"Average Stomatal Conductance (% of Control), 6 DAS",[1]; [7],61.3 % of Control
same,"Average Stomatal Conductance (% of Control), 16 DAS",[1]; [7],62.5 % of Control
same,"Shoot Fresh Weight, 15 DAS",[2]; 300 ppm or 7.5 mg/plant,258.9 grams
same,"Average # of Rolled Leaves/Plant, 5 DAS",[2]; 300 ppm or 7.5 mg/plant,2.8
same,"Average # of Rolled Leaves/Plant, 6 DAS",[2]; 300 ppm or 7.5 mg/plant,2.6
same,"Average # of Rolled Leaves/Plant, 8 DAS",[2]; 300 ppm or 7.5 mg/plant,8.4
same,"Shoot Fresh Weight, 15 DAS",[2]; 1000 ppm or 25 mg/plant,282.5 grams
same,"Average # of Rolled Leaves/Plant, 5 DAS",[2]; 1000 ppm or 25 mg/plant,1.2
same,"Average # of Rolled Leaves/Plant, 6 DAS",[2]; 1000 ppm or 25 mg/plant,3.0
same,"Average # of Rolled Leaves/Plant, 8 DAS",[2]; 1000 ppm or 25 mg/plant,8.8
same,"Shoot Fresh Weight, 15 DAS",[2]; 3000 ppm or 75 mg/plant,301.7 grams
same,"Average # of Rolled Leaves/Plant, 5 DAS",[2]; 3000 ppm or 75 mg/plant,0.0
same,"Average # of Rolled Leaves/Plant, 6 DAS",[2]; 3000 ppm or 75 mg/plant,0.2
same,"Average # of Rolled Leaves/Plant, 8 DAS",[2]; 3000 ppm or 75 mg/plant,7.2
same,Effectiveness at reducing leaf rolling,[2]; S-ABA 75 mg/plant compared with 25 mg of the derivatives,"as effective at reducing leaf rolling as 25 mg of 3′-methyl-(S)-abscisic acid, or 3′-propargyl-(S)-abscisic acid"
same,Reduction in stomatal conductance at 1 day post spraying,[3]; 300 mg/l foliar spray,58%
same,Time of 50% recovery of the control conductance,[3]; 300 mg/l foliar spray,≤ 2 days
same,Time of greater than 50% recovery of the control conductance,[3]; 1000 mg/l foliar spray,5 days
same,"Percent Conductance (stomatal conductance, control = 100%), Day 1",[3]; [8],42%
same,"Percent Conductance (stomatal conductance, control = 100%), Day 2",[3]; [8],56%
same,"Percent Conductance (stomatal conductance, control = 100%), Day 5",[3]; [8],80%
same,"Percent Conductance (stomatal conductance, control = 100%), Day 6",[3]; [8],108%
same,"Percent Conductance (stomatal conductance, control = 100%), Day 7",[3]; [8],122%
same,"Percent Conductance (stomatal conductance, control = 100%), Day 1",[3]; [9],27%
same,"Percent Conductance (stomatal conductance, control = 100%), Day 2",[3]; [9],32%
same,"Percent Conductance (stomatal conductance, control = 100%), Day 5",[3]; [9],58%
same,"Percent Conductance (stomatal conductance, control = 100%), Day 6",[3]; [9],80%
same,"Percent Conductance (stomatal conductance, control = 100%), Day 7",[3]; [9],118%
same,Growth during stress recovery following cold,"[4]; 3′-propargyl-(S)-ABA particularly between 11.4 and 113.7 g/acre, S-ABA at rates up to 1000 mg/liter (113.7 g/acre)",did not aid recovery growth
same,Maintenance of growth under cold (10° C.) conditions,[4]; S-ABA even at 1000 mg/l (113.7 g/acre),did not maintain growth
same,"Growth Rate, Greenhouse 7-9 d post spray",[4]; Table 3 study,3.270 cm/day
same,"Growth Rate, Greenhouse 0-2 d post spray",[4]; Table 3 study,4.315 cm/day
same,"Growth Rate, Growth Chamber 10° C. 2-7 d post spray",[4]; Table 3 study,0.766 cm/day
same,"Growth Rate, Greenhouse 7-9 d post spray",[4]; Table 4 study,2.161 cm/day
same,"Growth Rate, Greenhouse 0-2 d post spray",[4]; Table 4 study,3.156 cm/day
same,"Growth Rate, Growth Chamber 10° C. 2-7 d post spray",[4]; Table 4 study,1.249 cm/day
same,Leaf area,"[4]; in one of two studies, not repeatable across studies, 3′-methyl-(S)-abscisic acid at 30, 100 and 300 mg/liter",increased

# Reference: patent publication US10314307B2, “(S)-abscisic acid derivatives for improving plant stress tolerance” (Valent BioSciences Corporation, priority 2015, dated 2019)
